Laboratory results published in patent US20250296959A1, “B7-H3 TARGETING PEPTIDES AND CONSTRUCTS THEREOF” (Mariana Oncology Inc., priority 2024, published 2025).
Starred links: 1 amine or outer side, 2 acyl side, 3 side chain; linkers in the order of their positions; H or OH if unused. Positions of bridges follow the written chain, without caps; N, C: chain ends. Non-standard residues stand in square brackets, D forms with d. Residues, ends and D or L forms follow the SMILES beside them. Groups on a side chain read outwards from the residue. *: point of attachment. Ala(piperidin-4-yl) = O=C([C@H](CC1CCN([*:3])CC1)N[*:1])[*:2]; DOTA = O=C(O)CN1CCN(CC(=O)O)CCN(CC(=O)*)CCN(CC(=O)O)CC1; Phe(4-COOH) = N[C@@H](Cc1ccc(C(=O)O)cc1)C(=O)O; Trp(5-F) = N[C@@H](Cc1c[nH]c2ccc(F)cc12)C(=O)O; X15 = CC(=O)N1CCC(C[C@H](N[*:1])C(=O)[*:2])CC1; X1 = C[C@@H](c1ccccc1)[C@H](N[*:1])C(=O)[*:2]; Ala(4-THP) = N[C@@H](CC1CCOCC1)C(=O)O; Phe(2-F) = N[C@@H](Cc1ccccc1F)C(=O)O; Val(3-OH) = CC(C)(O)[C@H](N)C(=O)O; cisHyp = O=C(O)[C@@H]1C[C@H](O)CN1; NMeF = CN[C@@H](Cc1ccccc1)C(=O)O; 4Pal = N[C@@H](Cc1ccncc1)C(=O)O; PEG4 = NCCOCCOCCOCCOCCC(=O)O; Tle = CC(C)(C)[C@H](N)C(=O)O; hLeu = CC(C)CC[C@H](N)C(=O)O; Nle = CCCC[C@H](N)C(=O)O; Nva = CCC[C@H](N)C(=O)O; PEG2 = NCCOCCOCCC(=O)O

The compounds below were run against T1, human 4lg B7-H3 (Homo sapiens, UniProt Q5ZPR3) (assay: Affinity determination by surface plasmon resonance (SPR) to 4Ig B7-H3). Settings: SPR KD—25° C., 4Ig B7-H3; 25° C. flow cell temperature.
T1 sequence (Q5ZPR3 29-534): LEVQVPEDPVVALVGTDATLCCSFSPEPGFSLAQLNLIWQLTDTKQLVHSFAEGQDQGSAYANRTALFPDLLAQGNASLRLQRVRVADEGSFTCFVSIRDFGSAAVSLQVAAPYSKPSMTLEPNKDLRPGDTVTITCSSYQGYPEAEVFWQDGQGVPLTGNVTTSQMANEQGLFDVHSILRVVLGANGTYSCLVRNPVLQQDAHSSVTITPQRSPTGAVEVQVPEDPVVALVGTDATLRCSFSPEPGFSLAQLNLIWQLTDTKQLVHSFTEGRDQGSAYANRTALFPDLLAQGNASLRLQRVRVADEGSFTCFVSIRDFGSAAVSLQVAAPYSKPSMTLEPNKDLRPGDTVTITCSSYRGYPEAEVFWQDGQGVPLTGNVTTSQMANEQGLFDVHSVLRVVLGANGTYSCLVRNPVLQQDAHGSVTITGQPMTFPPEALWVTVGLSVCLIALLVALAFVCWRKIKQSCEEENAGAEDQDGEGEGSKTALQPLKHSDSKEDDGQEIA

SMILES | Kd [nM]
CC(=O)N[C@@H](CCC(C)C)C(=O)N[C@@H](Cc1ccc(O)cc1)C(=O)N[C@H]1CSSC[C@@H](C(=O)N[C@@H](Cc2c[nH]c3ccc(F)cc23)C(=O)N(C)[C@@H](Cc2ccccc2)C(=O)N[C@H](C(=O)N[C@H](CCCCNC(=O)CN2CCN(CC(=O)O)CCN(CC(=O)O)CCN(CC(=O)O)CC2)C(N)=O)[C@@H](C)O)NC(=O)[C@H](Cc2ccc(O)cc2)NC(=O)[C@H](C(C)C)NC(=O)[C@H](CC(=O)O)NC(=O)[C@H](Cc2ccc(O)cc2)NC(=O)[C@H](CCCCN)NC(=O)CNC(=O)[C@H](C(C)C)NC1=O [compound 205, Ac-hLeu-Y-C-V-G-K-Y-D-V-Y-C-5FW-NMePhe-Thr-dLys(DOTA)-CONH2] (Ac-[hLeu]YCVGKYDVYC[Trp(5-F)][NMeF]T[dK](DOTA)-NH2; disulfide 3-11) | 1 to 10
CC(=O)N[C@@H](CCC(C)C)C(=O)N[C@@H](Cc1ccc(O)cc1)C(=O)N[C@H]1CSSC[C@@H](C(=O)N[C@@H](Cc2c[nH]c3ccc(F)cc23)C(=O)N[C@@H](Cc2ccccc2)C(=O)N2CCC[C@H]2C(=O)O)NC(=O)[C@H](Cc2ccc(O)cc2)NC(=O)[C@H](C(C)C)NC(=O)[C@H](CC(=O)O)NC(=O)[C@H](CC2CCOCC2)NC(=O)[C@H](CCCCNC(=O)CN2CCN(CC(=O)O)CCN(CC(=O)O)CCN(CC(=O)O)CC2)NC(=O)CNC(=O)[C@H](C(C)(C)C)NC1=O [compound 305, Ac-hLeu-Y-C-Tbg-G-Lys(DOTA)-ThpA-D-V-Y-C-5FW-F-Pro-COOH] (Ac-[hLeu]YC[Tle]GK(DOTA)[Ala(4-THP)]DVYC[Trp(5-F)]FP-OH; disulfide 3-11) | 100 to 300
CCCC[C@@H]1NC(=O)[C@H](CC(=O)O)NC(=O)[C@H](Cc2ccc(O)cc2)NC(=O)[C@H](CCCCN)NC(=O)CNC(=O)[C@H](C(C)C)NC(=O)[C@@H](NC(=O)[C@H](Cc2ccc(O)cc2)NC(=O)[C@H](CCC(C)C)NC(C)=O)CSSC[C@@H](C(=O)N[C@@H](Cc2c[nH]c3ccc(F)cc23)C(=O)N[C@@H](Cc2ccccc2)C(=O)N[C@H](C(=O)N[C@H](CCCCNC(=O)CN2CCN(CC(=O)O)CCN(CC(=O)O)CCN(CC(=O)O)CC2)C(N)=O)[C@@H](C)O)NC(=O)[C@H](Cc2ccc(O)cc2)NC1=O [compound 186, Ac-hLeu-Y-C-V-G-K-Y-D-Nle-Y-C-5FW-F-Thr-dLys(DOTA)-CONH2] (Ac-[hLeu]YCVGKYD[Nle]YC[Trp(5-F)]FT[dK](DOTA)-NH2; disulfide 3-11) | 1 to 10
CC(=O)N[C@@H](CCC(C)C)C(=O)N[C@@H](Cc1ccc(O)cc1)C(=O)N[C@H]1CSSC[C@@H](C(=O)N[C@@H](Cc2c[nH]c3ccccc23)C(=O)N[C@@H](Cc2ccccc2)C(=O)N[C@H](C(=O)N[C@H](CCCCNC(=O)CN2CCN(CC(=O)O)CCN(CC(=O)O)CCN(CC(=O)O)CC2)C(N)=O)[C@@H](C)O)NC(=O)[C@H](Cc2ccc(O)cc2)NC(=O)[C@H](C(C)C)NC(=O)[C@H](CC(=O)O)NC(=O)[C@H](CC2CCNCC2)NC(=O)[C@H](CCCCN)NC(=O)CNC(=O)[C@H](C(C)C)NC1=O [compound 135, Ac-hLeu-Y-C-V-G-K-PipAla-D-V-Y-C-W-F-Thr-dLys(DOTA)-CONH2] (Ac-[hLeu]YCVGK[Ala(piperidin-4-yl)]DVYCWFT[dK](DOTA)-NH2; disulfide 3-11) | 1 to 10
CC(=O)N[C@@H](CCC(C)C)C(=O)N[C@@H](Cc1ccc(O)cc1)C(=O)N[C@H]1CSSC[C@@H](C(=O)N[C@@H](Cc2c[nH]c3ccc(F)cc23)C(=O)N[C@@H](Cc2ccccc2F)C(=O)N[C@H](C(=O)N[C@H](CCCCNC(=O)CN2CCN(CC(=O)O)CCN(CC(=O)O)CCN(CC(=O)O)CC2)C(N)=O)[C@@H](C)O)NC(=O)[C@H](Cc2ccc(O)cc2)NC(=O)[C@H](C(C)C)NC(=O)[C@H](CC(=O)O)NC(=O)[C@H](Cc2ccc(O)cc2)NC(=O)[C@H](CCCCN)NC(=O)CNC(=O)[C@H](C(C)C)NC1=O [compound 164, Ac-hLeu-Y-C-V-G-K-Y-D-V-Y-C-5FW-2FPhe-Thr-dLys(DOTA)-CONH2] (Ac-[hLeu]YCVGKYDVYC[Trp(5-F)][Phe(2-F)]T[dK](DOTA)-NH2; disulfide 3-11) | < 1
CC(=O)N[C@@H](CCC(C)C)C(=O)N[C@@H](Cc1ccc(O)cc1)C(=O)N[C@H]1CSSC[C@@H](C(=O)N[C@@H](Cc2c[nH]c3ccc(F)cc23)C(=O)N[C@@H](Cc2ccccc2)C(=O)N[C@H](C(N)=O)C(C)(C)O)NC(=O)[C@H](Cc2ccc(O)cc2)NC(=O)[C@H](C(C)C)NC(=O)[C@H](CC(=O)O)NC(=O)[C@H](CC2CCNCC2)NC(=O)[C@H](CCCCNC(=O)CN2CCN(CC(=O)O)CCN(CC(=O)O)CCN(CC(=O)O)CC2)NC(=O)CNC(=O)[C@H](C(C)C)NC1=O [compound 202, Ac-hLeu-Y-C-V-G-Lys(DOTA)-PipAla-D-V-Y-C-5FW-F-hydroxyVal-CONH2] (Ac-[hLeu]YCVGK(DOTA)[Ala(piperidin-4-yl)]DVYC[Trp(5-F)]F[Val(3-OH)]-NH2; disulfide 3-11) | 1 to 10
CCC[C@@H]1NC(=O)[C@@H](NC(=O)[C@H](Cc2ccc(O)cc2)NC(=O)[C@H](CCC(C)C)NC(C)=O)CSSC[C@@H](C(=O)N[C@@H](Cc2c[nH]c3ccc(F)cc23)C(=O)N[C@@H](Cc2ccccc2)C(=O)N[C@H](C(=O)N[C@H](CCCCNC(=O)CN2CCN(CC(=O)O)CCN(CC(=O)O)CCN(CC(=O)O)CC2)C(N)=O)[C@@H](C)O)NC(=O)[C@H](Cc2ccc(O)cc2)NC(=O)[C@H](C(C)C)NC(=O)[C@H](CC(=O)O)NC(=O)[C@H](Cc2ccc(O)cc2)NC(=O)[C@H](CCCCN)NC(=O)CNC1=O [compound 184, Ac-hLeu-Y-C-Nva-G-K-Y-D-V-Y-C-5FW-F-Thr-dLys(DOTA)-CONH2] (Ac-[hLeu]YC[Nva]GKYDVYC[Trp(5-F)]FT[dK](DOTA)-NH2; disulfide 3-11) | 1 to 10
CC[C@H](C)[C@@H]1NC(=O)[C@@H](NC(=O)[C@H](Cc2ccc(O)cc2)NC(=O)[C@H](CCC(C)C)NC(C)=O)CSSC[C@@H](C(=O)N[C@@H](Cc2c[nH]c3ccc(F)cc23)C(=O)N[C@@H](Cc2ccccc2)C(=O)N2C[C@@H](O)C[C@H]2C(N)=O)NC(=O)[C@H](Cc2ccc(O)cc2)NC(=O)[C@H](C(C)C)NC(=O)[C@H](CC(=O)O)NC(=O)[C@H](Cc2ccncc2)NC(=O)[C@H](CCCCNC(=O)CN2CCN(CC(=O)O)CCN(CC(=O)O)CCN(CC(=O)O)CC2)NC(=O)CNC1=O [compound 251, Ac-hLeu-Y-C-Ile-G-Lys(DOTA)-4PyA-D-V-Y-C-5FW-F-(cisHyp)-CONH2] (Ac-[hLeu]YCIGK(DOTA)[4Pal]DVYC[Trp(5-F)]F[cisHyp]-NH2; disulfide 3-11) | 1 to 10

Same assay, conditions: SPR KD—37° C., 4Ig B7-H3; 37° C. flow cell temperature

SMILES | Kd [nM]
CC(=O)N[C@@H](CCC(C)C)C(=O)N[C@@H](Cc1ccc(O)cc1)C(=O)N[C@H]1CSSC[C@@H](C(=O)N[C@@H](Cc2c[nH]c3ccc(F)cc23)C(=O)N[C@H](C(=O)N[C@H](C(=O)N[C@H](C)C(=O)O)C(C)(C)O)[C@@H](C)c2ccccc2)NC(=O)[C@H](Cc2ccc(O)cc2)NC(=O)[C@H](C(C)C)NC(=O)[C@H](CC(=O)O)NC(=O)[C@H](CC2CCN(C(=O)CCOCCOCCOCCOCCNC(=O)CN3CCN(CC(=O)O)CCN(CC(=O)O)CCN(CC(=O)O)CC3)CC2)NC(=O)[C@H](CC2CCN(C(C)=O)CC2)NC(=O)CNC(=O)[C@H](C(C)(C)C)NC1=O [compound 513, Ac-hLeu-Y-C-Tbg-G-Pip(Ac)Ala-Pip(PEG4-DOTA)Ala-D-V-Y-C-5FW-[(2S, 3S)beta-Me-Phe]-hydroxyVal-dAla-COOH] (Ac-[hLeu]YC[Tle]G[X15][Ala(piperidin-4-yl)]([PEG4-DOTA])DVYC[Trp(5-F)][X1][Val(3-OH)][dA]-OH; disulfide 3-11) | < 1
CC(=O)N[C@@H](CCC(C)C)C(=O)N[C@@H](Cc1ccc(O)cc1)C(=O)N[C@H]1CSSC[C@@H](C(=O)N[C@@H](Cc2c[nH]c3ccc(F)cc23)C(=O)N[C@@H](Cc2ccccc2)C(=O)N[C@H](C(=O)O)C(C)(C)O)NC(=O)[C@H](Cc2ccc(O)cc2)NC(=O)[C@H](C(C)C)NC(=O)[C@H](CC(=O)O)NC(=O)[C@H](Cc2ccc(C(=O)O)cc2)NC(=O)[C@H](CCCCNC(=O)CN2CCN(CC(=O)O)CCN(CC(=O)O)CCN(CC(=O)O)CC2)NC(=O)CNC(=O)[C@H](C(C)C)NC1=O [compound 325, Ac-hLeu-Y-C-V-G-Lys(DOTA)-4COOHPhe-D-V-Y-C-5FW-F-hydroxyVal-COOH] (Ac-[hLeu]YCVGK(DOTA)[Phe(4-COOH)]DVYC[Trp(5-F)]F[Val(3-OH)]-OH; disulfide 3-11) | 10 to 100
CC(=O)N[C@@H](CCC(C)C)C(=O)N[C@@H](Cc1ccc(O)cc1)C(=O)N[C@H]1CSSC[C@@H](C(=O)N[C@@H](Cc2c[nH]c3ccc(F)cc23)C(=O)N[C@@H](Cc2ccccc2)C(=O)N[C@H](C(=O)N[C@H](CCC(=O)O)C(N)=O)C(C)(C)O)NC(=O)[C@H](Cc2ccc(O)cc2)NC(=O)[C@H](C(C)C)NC(=O)[C@H](CC(=O)O)NC(=O)[C@H](CC2CCN(C(=O)CCOCCOCCNC(=O)CN3CCN(CC(=O)O)CCN(CC(=O)O)CCN(CC(=O)O)CC3)CC2)NC(=O)[C@H](CC2CCNCC2)NC(=O)CNC(=O)[C@H](C(C)(C)C)NC1=O [Cpd #458, Ac-hLeu-Y-C-Tbg-G-PipAla-Pip(PEG2-DOTA)Ala-D-V-Y-C-5FW-F-hydroxyVal-dGlu-CONH2] (Ac-[hLeu]YC[Tle]G[Ala(piperidin-4-yl)][Ala(piperidin-4-yl)]([PEG2-DOTA])DVYC[Trp(5-F)]F[Val(3-OH)][dE]-NH2; disulfide 3-11) | < 1
